Experiments:
[1] = tested on: 4T1-Luc2 cells; assay: 4T1-Luc2 mammary carcinoma tumor resection model: metastasis and survival; type: in vivo, BALB/c mice
Experimental: BALB/c mice were subcutaneously injected with 4T1-Luc2 cells (5×10^5/100 μl PBS/mouse) into the fourth mammary fat pad under isoflurane anesthesia. Tumor growth was monitored by measuring the tumor volume according to the formula: volume=length×(width)^2/2. After tumors were established (180-200 mm^3) on day 14, test mice were divided into different groups (8 mice/group) and subjected to different treatments. At 15 days post tumor cell implantation, primary 4T1 tumors in situ were surgically removed by a tumor resection process. For drug treatment, mice were administered with different agents, including vehicle-control (PBS), mouse IL-25 protein (10 μg/kg, ProSpec, Vineland, N.J.), Q2-3 (2, […]; […]), by intravenous injection for 3 weeks (3 injections/week) post tumor resection. For in vivo neutralization of mouse IL-25 activity, mice were treated intraperitoneally with either 100 μg anti-mouse IL-25 (IL-17E) antibody (clone 35B; Biolegend) or isotype control rat IgG (100 μg; rat, IgG1κ; Biolegend) at days 0, 3, 6, 9, 12, 15, 18 post tumor resection. To detect metastasis of human MDA-MD-231-Luc2 tumor cells, nude mice were injected subcutaneously with 5×10^5 MDA-MD-231-Luc2 cells into the mammary fat pad under isoflurane anesthesia. After tumors were established (250-350 mm^3) on day 24, test mice were divided into different groups (8 mice/group) and subjected to different treatments. At 25 days post tumor cell implantation, primary MDA-MD-231-Luc2 tumors in situ were surgically removed by a tumor resection process. […] Bioluminescence signals from the 4T1-luc2 tumor cells in test mice were analyzed using a non-invasive IVIS imaging system (Calipers, Hopkinton, Mass.) after intraperitoneal injection of 150 mg/kg D-luciferin (NanoLight technology, Pinetop, Ariz.).
Statistical analysis was performed using an unpaired, two-tailed Student's t-test. […] Differences in tumor metastasis or mouse survival rate were determined by a log-rank (Mantel-Cox) test of the Kaplan-Meier curves. […]

[2] = tested on: IL-25; assay: IL-25 expression in lung fibroblasts, 4T1 tumor resection model (IF staining, flow cytometry); type: in vivo, mice
Experimental: BALB/c mice were subcutaneously injected with 4T1-Luc2 cells (5×10^5/100 μl PBS/mouse) into the fourth mammary fat pad under isoflurane anesthesia. Tumor growth was monitored by measuring the tumor volume according to the formula: volume=length×(width)^2/2. After tumors were established (180-200 mm^3) on day 14, test mice were divided into different groups (8 mice/group) and subjected to different treatments. At 15 days post tumor cell implantation, primary 4T1 tumors in situ were surgically removed by a tumor resection process. For drug treatment, mice were administered with different agents, including vehicle-control (PBS), mouse IL-25 protein (10 μg/kg, ProSpec, Vineland, N.J.), Q2-3 (2, 20 or 100 μg/kg) or docetaxel (2 mg/kg; Sigma-Aldrich), by intravenous injection for 3 weeks (3 injections/week) post tumor resection. For in vivo neutralization of mouse IL-25 activity, mice were treated intraperitoneally with either 100 μg anti-mouse IL-25 (IL-17E) antibody (clone 35B; Biolegend) or isotype control rat IgG (100 μg; rat, IgG1κ; Biolegend) at days 0, 3, 6, 9, 12, 15, 18 post tumor resection. To detect metastasis of human MDA-MD-231-Luc2 tumor cells, nude mice were injected subcutaneously with 5×10^5 MDA-MD-231-Luc2 cells into the mammary fat pad under isoflurane anesthesia. After tumors were established (250-350 mm^3) on day 24, test mice were divided into different groups (8 mice/group) and subjected to different treatments. At 25 days post tumor cell implantation, primary MDA-MD-231-Luc2 tumors in situ were surgically removed by a tumor resection process. For drug treatment, mice were administered with PBS (vehicle-control), Q2-3 (100 μg/kg), docetaxel (5 mg/kg) or Q2-3 (100 μg/kg)+docetaxel (5 mg/kg), by intravenous injection for 3 weeks (3 injections/week) post tumor resection. To monitor the progression of mouse (4T1) or human (MDA-MD-231) metastatic tumors, test mice treated with different drugs/agents were compared for their tumor metastatic activity and survival rate aftern another 8 weeks. Bioluminescence signals from the 4T1-luc2 tumor cells in test mice were analyzed using a non-invasive IVIS imaging system (Calipers, Hopkinton, Mass.) after intraperitoneal injection of 150 mg/kg D-luciferin (NanoLight technology, Pinetop, Ariz.).
Lung tissue specimens obtained from each tumor-resected mouse were fixed with 4% formalin and embedded in paraffin. For histological comparison, 6 μm-thick tissue sections were made and stained with hematoxylin and eosin (H&E). For immunofluorescence staining, fixed tissue sections were initially immersed in boiling sodium citrate buffer (0.01 M sodium citrate buffer, pH 6.0) for 30 min Lung tissue sections were blocked with 5% nonfat milk, and incubated with anti-FSP-1 antibody (1:200 dilution; Millipore), FITC-conjugated anti-CD206 antibody (1:200 dilution; Biolegend) or PE-conjugated anti-IL-25 antibody (1:100; R&D) in 1% nonfat milk for 1 hour at room temperature. Sections were then washed with PBS containing 0.1% Tween 20. To detect primary antibodies, some sections were incubated with FITC-conjugated anti-mouse-IgG (1:200; Jackson Immunoresearch, West Grove, Pa.) for FSP-1. 4′,6-Diamidino-2-phenylindole dihydrochloride (1 μg/ml; Sigma-Aldrich) was used to stain the nuclei. Fluorescence microscopy evaluation of immunostained tissue sections was performed using a Zeiss Axiovert 200 M microscope (Carl Zeiss, Heidelberg, Germany) Images were captured with a digital camera (Orca ER, Hamamatsu) and processed using Axiovision 4.6.3 (Carl Zeiss).
For detection of myeloid derived suppressor cells (MDSCs), cells from mouse lung tissue in each group were collected and stained for 30 min at 4° C. with antibodies against specific cell markers, including FITC-conjugated anti-mouse CD11b (for cell surface), APC-Cy7 conjugated anti-mouse Ly-6C and PE conjugated anti-mouse Ly-6G, (both for intracellular staining). All three antibodies were obtained from Biolegend, (San Diego, Calif.). […]

In the case of `COC(=O)/C=C/c1cc(O)c2c(c1)C(C(=O)OC)C(c1ccc(O)c(O)c1)O2` (stereo not shown) [Q2-3, methyl(E)-3-[2-(3,4-dihydroxyphenyl)-7-hydroxy-3-methoxycarbonyl-2,3-dihydro-1-benzofuran-5yl]-prop-2-enoate], the “survival rate of tumor-resected mice” value ([1]; 4T1 tumor resection model) is reported as “significantly increased”, the “metastasis of 4T1 cells to the lung (luminescent activity)” value ([1]; ≥20 μg/kg i.v., 3 injections/week for 3 weeks post tumor resection) is reported as “significantly suppress” and the “anti-metastatic activity compared with doxorubicin (2 mg/kg)” value ([1]; ≥20 μg/kg, luciferase activity) is reported as “much higher anti-metastatic activity than treatment with doxorubicin”. For the same molecule, the “total FSP-1+ER-TR7+ fibroblast population in lung” value ([2]; 3 weeks post tumor resection, PBS control 5.2%) was 7.3%, the “cell population of IL-25+ fibroblasts (FSP-1+ER-TR7+IL-25+ cells) in lung” value ([2]; 3 weeks post tumor resection, PBS control 16.7%) was 79.5% and the “IL-25 expression in lung fibroblasts (IF staining)” value ([2]; Q2-3 100 μg/kg, 21 days post tumor resection) was “readily detectable stimulatory effect”. For the same molecule, the “increase in FSP-1+IL-25+ fibroblast population in spleen or other tissues” value ([2]; data not shown) was “not detected”.

Source: patent US11207289B2, “Use of benzofuran lignans to induce IL-25 expression and suppress mammary tumor metastasis” (ACADEMIA SINICA, priority 2016, dated 2021)
